From ChEMBL document CHEMBL4422634, “Discovery of novel anti-angiogenesis agents. Part 9: Multiplex inhibitors suppressing compensatory activations of RTKs” (Eur J Med Chem, 2019) come the findings set out here.

One assay has as its system EA.hy 926. The assay can be described thus: Antiproliferative activity against human EAhy926 cells assessed as reduction in cell viability after 24 hrs by CCK-8 assay. As to conditions: EA.hy 926, 24 h. (Formazan colour is commonly taken as a measure of viable cells.)
The target in a further assay is Angiopoietin-1 receptor (Homo sapiens, UniProt Q02763). Put plainly: Inhibition of Tie-2 (unknown origin) after 1 hrs by ADP-Glo luminescence assay.
Chain of Angiopoietin-1 receptor (Q02763 whole entry): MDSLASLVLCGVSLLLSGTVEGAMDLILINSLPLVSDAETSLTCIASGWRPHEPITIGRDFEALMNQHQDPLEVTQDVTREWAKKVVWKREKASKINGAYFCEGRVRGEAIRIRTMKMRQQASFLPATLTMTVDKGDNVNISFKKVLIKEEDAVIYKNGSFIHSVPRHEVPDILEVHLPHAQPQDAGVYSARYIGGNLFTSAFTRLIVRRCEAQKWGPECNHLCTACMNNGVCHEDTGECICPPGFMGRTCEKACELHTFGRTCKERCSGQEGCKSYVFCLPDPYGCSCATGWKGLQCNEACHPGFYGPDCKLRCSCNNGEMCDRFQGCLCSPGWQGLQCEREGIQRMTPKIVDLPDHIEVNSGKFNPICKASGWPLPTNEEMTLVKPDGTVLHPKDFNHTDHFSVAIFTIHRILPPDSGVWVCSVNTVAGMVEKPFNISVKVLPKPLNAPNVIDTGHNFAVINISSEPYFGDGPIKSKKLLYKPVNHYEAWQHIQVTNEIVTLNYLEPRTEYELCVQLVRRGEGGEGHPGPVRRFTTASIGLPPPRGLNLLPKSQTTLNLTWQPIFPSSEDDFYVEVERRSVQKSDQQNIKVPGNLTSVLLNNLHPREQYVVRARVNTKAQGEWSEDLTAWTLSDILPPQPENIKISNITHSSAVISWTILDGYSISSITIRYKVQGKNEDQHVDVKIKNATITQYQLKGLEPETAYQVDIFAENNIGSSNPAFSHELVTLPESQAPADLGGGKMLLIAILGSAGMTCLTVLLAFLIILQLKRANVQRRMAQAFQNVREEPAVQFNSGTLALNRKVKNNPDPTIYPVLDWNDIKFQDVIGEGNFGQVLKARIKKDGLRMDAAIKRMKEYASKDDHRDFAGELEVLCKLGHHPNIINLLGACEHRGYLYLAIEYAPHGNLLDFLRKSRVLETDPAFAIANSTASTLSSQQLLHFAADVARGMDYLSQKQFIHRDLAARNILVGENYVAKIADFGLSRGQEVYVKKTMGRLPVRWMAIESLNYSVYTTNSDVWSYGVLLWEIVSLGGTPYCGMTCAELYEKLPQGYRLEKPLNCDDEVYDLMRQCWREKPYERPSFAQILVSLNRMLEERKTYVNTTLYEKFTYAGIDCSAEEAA
For the next assay, the target named is T1, Ephrin type-B receptor 4 (Homo sapiens, UniProt P54760).
T1 sequence (P54760 whole entry): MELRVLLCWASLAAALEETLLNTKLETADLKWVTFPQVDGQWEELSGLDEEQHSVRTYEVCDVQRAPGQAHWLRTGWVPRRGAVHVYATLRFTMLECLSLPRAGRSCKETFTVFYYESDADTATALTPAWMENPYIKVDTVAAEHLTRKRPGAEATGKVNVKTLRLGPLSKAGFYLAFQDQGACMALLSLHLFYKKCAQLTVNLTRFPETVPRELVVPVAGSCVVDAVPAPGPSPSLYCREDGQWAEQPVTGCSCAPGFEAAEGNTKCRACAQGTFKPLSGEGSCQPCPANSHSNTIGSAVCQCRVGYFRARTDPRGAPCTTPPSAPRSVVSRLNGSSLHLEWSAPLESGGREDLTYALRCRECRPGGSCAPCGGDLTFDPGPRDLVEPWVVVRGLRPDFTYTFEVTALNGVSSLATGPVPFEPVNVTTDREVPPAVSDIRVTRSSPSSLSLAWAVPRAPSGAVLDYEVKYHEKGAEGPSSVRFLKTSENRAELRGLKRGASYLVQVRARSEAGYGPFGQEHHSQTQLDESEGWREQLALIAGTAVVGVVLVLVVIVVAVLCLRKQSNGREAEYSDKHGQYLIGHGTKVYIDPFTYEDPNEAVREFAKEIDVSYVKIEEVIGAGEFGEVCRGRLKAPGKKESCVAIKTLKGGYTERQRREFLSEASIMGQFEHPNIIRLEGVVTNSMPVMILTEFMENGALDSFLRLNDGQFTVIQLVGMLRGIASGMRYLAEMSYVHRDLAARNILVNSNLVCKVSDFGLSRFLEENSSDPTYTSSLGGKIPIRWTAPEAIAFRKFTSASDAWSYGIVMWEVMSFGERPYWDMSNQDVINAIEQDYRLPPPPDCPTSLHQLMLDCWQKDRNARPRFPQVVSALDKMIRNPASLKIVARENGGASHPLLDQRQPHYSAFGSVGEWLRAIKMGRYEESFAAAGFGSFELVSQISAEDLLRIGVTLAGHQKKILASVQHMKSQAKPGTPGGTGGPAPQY
Put plainly: Inhibition of EphB4 (unknown origin) after 1 hrs by ADP-Glo luminescence assay. In general terms: In ADP-Glo the light output rises with the ADP produced.

Assay [1] addresses Vascular endothelial growth factor receptor 2 (Homo sapiens, UniProt P35968). The assay can be described thus: Inhibition of VEGFR-2 (unknown origin) after 1 hrs by ADP-Glo luminescence assay.
Another assay concerns A549. The assay can be described thus: Antiproliferative activity against human A549 cells after 48 hrs by MTT assay. As to conditions: A549, 48 h.
The subject of a further assay is HeLa. The assay can be described thus: Antiproliferative activity against human HeLa cells after 48 hrs by MTT assay.
The next assay concerns A-431. Put plainly: Antiproliferative activity against human A431 cells after 48 hrs by MTT assay. Particulars: A-431, 48 h.
The subject of the next assay is LoVo. The assay can be described thus: Antiproliferative activity against human LoVo cells after 48 hrs by MTT assay.
Another assay has as its system MCF7. The assay can be described thus: Antiproliferative activity against human MCF7 cells after 48 hrs by MTT assay. Particulars: MCF7, 48 h.

Chain of Vascular endothelial growth factor receptor 2 (P35968 whole entry): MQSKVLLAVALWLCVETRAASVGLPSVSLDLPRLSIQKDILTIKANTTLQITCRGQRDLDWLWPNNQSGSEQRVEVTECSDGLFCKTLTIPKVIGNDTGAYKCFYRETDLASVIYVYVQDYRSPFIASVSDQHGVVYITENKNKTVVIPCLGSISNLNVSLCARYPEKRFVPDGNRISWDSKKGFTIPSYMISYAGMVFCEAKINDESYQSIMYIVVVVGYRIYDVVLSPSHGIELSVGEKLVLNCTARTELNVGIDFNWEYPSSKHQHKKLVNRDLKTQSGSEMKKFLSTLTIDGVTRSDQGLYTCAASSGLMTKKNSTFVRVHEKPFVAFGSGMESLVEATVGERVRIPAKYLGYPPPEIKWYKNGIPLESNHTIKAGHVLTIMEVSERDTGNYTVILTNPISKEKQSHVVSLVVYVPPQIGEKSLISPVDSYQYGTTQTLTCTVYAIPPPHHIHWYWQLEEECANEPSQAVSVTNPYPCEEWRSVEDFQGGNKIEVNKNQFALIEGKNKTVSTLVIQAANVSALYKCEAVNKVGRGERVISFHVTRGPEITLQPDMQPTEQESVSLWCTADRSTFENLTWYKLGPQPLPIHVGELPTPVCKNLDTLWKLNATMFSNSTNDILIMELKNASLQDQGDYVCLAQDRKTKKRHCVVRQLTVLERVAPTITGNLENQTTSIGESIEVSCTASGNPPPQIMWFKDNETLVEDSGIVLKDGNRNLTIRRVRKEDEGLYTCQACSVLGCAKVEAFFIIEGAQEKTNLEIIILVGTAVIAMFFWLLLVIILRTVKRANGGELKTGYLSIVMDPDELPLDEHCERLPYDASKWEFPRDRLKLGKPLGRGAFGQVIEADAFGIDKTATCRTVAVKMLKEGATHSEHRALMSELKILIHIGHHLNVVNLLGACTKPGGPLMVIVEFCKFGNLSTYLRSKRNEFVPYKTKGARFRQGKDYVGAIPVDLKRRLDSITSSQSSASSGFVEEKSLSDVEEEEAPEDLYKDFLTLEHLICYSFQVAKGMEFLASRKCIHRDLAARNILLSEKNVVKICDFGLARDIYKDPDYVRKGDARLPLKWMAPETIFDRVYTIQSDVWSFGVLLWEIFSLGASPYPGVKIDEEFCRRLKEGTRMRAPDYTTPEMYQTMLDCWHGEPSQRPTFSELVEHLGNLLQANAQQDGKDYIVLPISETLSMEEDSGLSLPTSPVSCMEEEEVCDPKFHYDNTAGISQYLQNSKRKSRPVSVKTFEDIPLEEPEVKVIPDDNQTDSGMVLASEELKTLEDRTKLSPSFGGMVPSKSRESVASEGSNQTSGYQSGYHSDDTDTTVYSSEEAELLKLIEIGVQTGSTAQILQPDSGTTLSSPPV

By IC50 is commonly meant the concentration needed to halve the response being measured. On to `Nc1cccc(-c2cn(Cc3ccc(-c4cncnc4)cc3)nn2)c1`, for which the concentration for half-maximal inhibition (IC50) in the assay on EA.hy 926 is 30200 nM; against Angiopoietin-1 receptor it was 210 nM; at Ephrin type-B receptor 4 it was > 1000 nM.
With `Nc1cccc(-c2cn(Cc3ccc(-c4cn[nH]c4)cc3)nn2)c1`, the IC50 in the assay on EA.hy 926 was 251000 nM; in assay [1], > 1000 nM; on Angiopoietin-1 receptor, > 1000 nM; against Ephrin type-B receptor 4, > 1000 nM.
Regarding `O=C(Nc1cccc(-c2cn(Cc3ccc(-c4cncnc4)cc3)nn2)c1)C1CC1`, the IC50 was 17300 nM in the assay on EA.hy 926, > 1000 nM on Angiopoietin-1 receptor and > 1000 nM at Ephrin type-B receptor 4.
With `Cn1cc(-c2ccc(Cn3cc(-c4cccc(NC(=O)C5CC5)c4)nn3)cc2)cn1`, the IC50 in the assay on EA.hy 926 is 484000 nM; at Angiopoietin-1 receptor it was 0.82 nM; against Ephrin type-B receptor 4, > 1000 nM.
Regarding `FC(F)(F)c1ccc(-c2cn(Cc3ccc(-c4cn[nH]c4)cc3)nn2)cc1`, the results for the IC50 (in the assay on EA.hy 926; in assay [1]; against Angiopoietin-1 receptor) were 20900 nM, > 1000 nM and > 1000 nM, respectively.
Turning to `Cc1cccc(-c2cn(Cc3ccc(-c4cnn(C)c4)cc3)nn2)c1`, the IC50 was 1110 nM in the assay with EA.hy 926, > 1000 nM in [1] and 51.4 nM at Angiopoietin-1 receptor.
Turning to `Cn1cc(-c2ccc(Cn3cc(-c4ccccc4F)nn3)cc2)cn1`, the IC50 was determined as 1200 nM with A549; 27800 nM in the assay on HeLa; 1900 nM in the assay on EA.hy 926; 7290 nM with A-431; 2.69 nM at Angiopoietin-1 receptor; 1320 nM in the assay on LoVo. Moreover, the IC50 in the assay on MCF7 turned out to be 15600 nM.
Regarding `CNC(=O)c1cc(Oc2ccc(NC(=O)Nc3ccc(Cl)c(C(F)(F)F)c3)cc2)ccn1` [SORAFENIB], the IC50 came out at 3880 nM with A549; 8740 nM in the assay on HeLa; 3320 nM in the assay on A-431; 2520 nM in the assay with LoVo; 3470 nM in the assay with MCF7.
Consider `Cn1cc(-c2ccc(Cn3cc(-c4cccc(N)c4)nn3)cc2)cn1`, for which the figures for the IC50 in the assay on EA.hy 926, against Angiopoietin-1 receptor and against Ephrin type-B receptor 4 were 22000 nM, > 1000 nM and > 1000 nM, respectively.
Turning to `Fc1ccccc1-c1cn(Cc2ccc(-c3cncnc3)cc2)nn1`, the values for the IC50 in the assay on EA.hy 926 and against Angiopoietin-1 receptor were 22500 nM and 5.45 nM, respectively.
Consider `Cn1cc(-c2ccc(Cn3cc(-c4ccc(C(F)(F)F)cc4)nn3)cc2)cn1`, for which the figures for the IC50 (in [1]; at Angiopoietin-1 receptor) were > 1000 nM and 9.11 nM, respectively.
On to `Cc1ccc(-c2cn(Cc3ccc(-c4cncnc4)cc3)nn2)cc1`, for which the IC50 in the assay with EA.hy 926 is 1010 nM; at Angiopoietin-1 receptor, 25.7 nM.
As to `FC(F)(F)c1ccc(-c2cn(Cc3ccc(-c4cncnc4)cc3)nn2)cc1`, the IC50 in the assay with EA.hy 926 was 46800 nM; against Angiopoietin-1 receptor, > 1000 nM; against Ephrin type-B receptor 4, > 1000 nM.
On to `Cc1ccc(-c2cn(Cc3ccc(-c4cnn(C)c4)cc3)nn2)cc1`, for which the values for the IC50 in the assay with EA.hy 926 and against Angiopoietin-1 receptor were 38100 nM and 77.4 nM, respectively.
Take `c1ccc(-c2cn(Cc3ccc(-c4cncnc4)cc3)nn2)cc1`: the IC50 was 35500 nM in the assay on EA.hy 926, > 1000 nM in [1] and 51.9 nM at Angiopoietin-1 receptor.
Consider `Cc1cccc(-c2cn(Cc3ccc(-c4cncnc4)cc3)nn2)c1`, for which the IC50 in the assay with EA.hy 926 came to 142000 nM; at Angiopoietin-1 receptor, 13.7 nM.
The corresponding values for `Cn1cc(-c2ccc(Cn3cc(-c4ccccc4)nn3)cc2)cn1` are 62200 nM and > 1000 nM.
In the case of `Clc1cccc(-c2cn(Cc3ccc(-c4cncnc4)cc3)nn2)c1`, the 50% inhibitory concentration (IC50) in the assay on EA.hy 926 was 7830 nM; against Ephrin type-B receptor 4, > 1000 nM.
`Cc1cccc(-c2cn(Cc3ccc(-c4cn[nH]c4)cc3)nn2)c1`: the IC50 in the assay with EA.hy 926 is 134000 nM; on Angiopoietin-1 receptor, 46.4 nM; against Ephrin type-B receptor 4, > 1000 nM.
For the molecule `Fc1ccccc1-c1cn(Cc2ccc(-c3cn[nH]c3)cc2)nn1`, the IC50 was found to be 20000 nM in the assay on EA.hy 926 and 5.46 nM against Angiopoietin-1 receptor.
With `Cn1cc(-c2ccc(Cn3cc(-c4cccc(C(F)(F)F)c4)nn3)cc2)cn1`, the IC50 was found to be 69000 nM with EA.hy 926 and 1.79 nM against Angiopoietin-1 receptor.
